Measurements taken from the NIST ThermoML archive (doi:10.1021/je050527x).
Numbers after ± are expanded uncertainties.

What was measured:
[1] = refractive index (Na D-line) (dimensionless); settings: 293.1 K; 101.33 kPa; Liquid; Standard Abbe refractometry
[2] = Liquid; for mass density: 101.33 kPa; for Normal boiling temperature: Fischer boiling-point apparatus

refractive index [1] | mass density ([2]; 298.1 K) [kg/m3] | Normal boiling temperature [2] [°C] | Compound | mass density ([2]; 293.1 K) [kg/m3]
1.3721 ± 0.0011 | 1044.3 ± 0.5 | 117.70 ± 0.2 | CC(=O)O [acetic acid] | 
1.3811 ± 0.0011 | 988 ± 0.5 | 140.90 ± 0.2 | CCC(=O)O [propanoic acid] | 
1.5235 ± 0.0011 |  | 213.10 ± 0.2 | CC(=O)OCc1ccccc1 [benzyl ethanoate] | 1055.2 ± 0.9

Compound | refractive index [1] | mass density ([2]; 298.1 K) [kg/m3] | Normal boiling temperature [2] [°C] | mass density ([2]; 293.1 K) [kg/m3]
CCCC#N [butanenitrile] | 1.384 ± 0.0011 |  | 117.40 ± 0.2 | 793.7 ± 1.1
CC(=O)CC(C)C [4-methylpentan-2-one] | 1.3959 ± 0.0011 | 796.2 ± 1.1 | 116.30 ± 0.2 | 
